# Results reported in US20030083374A1, “NAALADase inhibitors useful as pharmaceutical compounds and compositions” (priority 1998, published 2003).
# Tested on: cortical cell cultures
# Experiment: in vitro assay of NAALADase inhibitors on ischemia in cortical cell cultures
# Format: cell-based
# Details: concentration required to cause a 50% reduction in glutamate toxicity following an ischemic insult (potassium cyanide and 2-deoxyglucose)
# Text: Some results are set forth in U.S. Pat. Nos. 5,672,592, 5,795,877, 5,863,536, 5,880,112 and 5,902,817, allowed U.S. patent application Ser. Nos. 08/825,997, 08/833,628, 08/842,360 and 08/899,319 for which the issue fees have been paid, the entire contents of which patents and applications are herein incorporated by reference. Other results are provided below in TABLE III.
row,SMILES,EC50
1,O=C(O)CCC(CP(=O)(O)C(NCc1ccccc1)c1ccccc1)C(=O)O (stereo not shown),1 nM
2,O=C(O)CCC(CP(=O)(O)CNCc1ccccc1)C(=O)O (stereo not shown),0.9 nM
3,O=C(O)CCC(CP(=O)(O)CN1C(=O)c2ccccc2C1=O)C(=O)O (stereo not shown),13 nM
4,O=C(O)CCC(CP(=O)(O)CNc1ccccc1)C(=O)O (stereo not shown),12 nM
5,O=C(O)CCC(CP(=O)(O)CNS(=O)(=O)c1ccccc1)C(=O)O (stereo not shown),792 nM
6,O=C(O)CCC(CP(=O)(O)CNc1ccc(F)cc1)C(=O)O (stereo not shown),3 nM
7,COc1ccc(NCP(=O)(O)CC(CCC(=O)O)C(=O)O)cc1 (stereo not shown),10 nM
8,Cc1ccc(NCP(=O)(O)CC(CCC(=O)O)C(=O)O)cc1 (stereo not shown),11 nM
9,CC(C)(C)c1ccc(NCP(=O)(O)CC(CCC(=O)O)C(=O)O)cc1 (stereo not shown),35 nM
10,O=C(O)CCC(CP(=O)(O)CC(CCC(=O)OCc1ccccc1)C(=O)OCc1ccccc1)C(=O)O (stereo not shown),0.01 nM
11,O=C(O)CCC(CP(=O)(O)CC(CCC(=O)O)C(=O)O)C(=O)O (stereo not shown),0.04 nM
12,CCC(CS)C(CCC(=O)O)C(=O)O (stereo not shown) [2-(1-ethyl-2-sulfanylethyl)pentanedioic acid],62 nM
13,CC(CS)C(CCC(=O)O)C(=O)O (stereo not shown) [2-(1-methyl-2-sulfanylethyl)pentanedioic acid],141 nM
14,O=C(O)CCC(CC(S)c1ccccc1)C(=O)O (stereo not shown) [2-(2-phenyl-2-sulfanylethyl)pentanedioic acid],29 nM
15,CCCCC(S)CC(CCC(=O)O)C(=O)O (stereo not shown) [2-(2-sulfanylhexyl)pentanedioic acid],1000 nM
16,CC(CS)CC(CCC(=O)O)C(=O)O (stereo not shown) [2-(3-sulfanyl-2-methylpropyl)pentanedioic acid],80 nM
17,O=C(O)CCC(CCCS)C(=O)O (stereo not shown) [2-(3-sulfanylpropyl)pentanedioic acid],13 nM
18,O=C(O)CCC(CCCCS)C(=O)O (stereo not shown) [2-(4-sulfanylbutyl)pentanedioic acid],36 nM
19,"O=C(O)CCC(CCSSCCC(CCC(=O)O)C(=O)O)C(=O)O (stereo not shown) [2-[2-[(3,5-dicarboxypentyl)dithio]ethyl]pentanedioic acid]",17 nM

# Tested on: rat MCAO model of stroke
# Experiment: in vivo assay on brain injury following MCAO
# Set-up: species or system Sprague-Dawley rats
# Details: 30 mg/kg IV bolus + 6 mg/kg/hr IV infusion 4 hours, 120 minutes post-occlusion
# Method: The control group received Hepes buffered saline.
# Four drug treated groups received Compound 1. For each rat, the treatment was initiated at 60 minutes post middle cerebral artery occlusion (MCAO) by an IV bolus injection which was immediately followed by IV infusion for 4 hours at rate of 0.5 ml/hr. Group 1 (n=9) received a dose of 100 mg/kg IV bolus followed by 20 mg/kg/hr IV infusion for 4 hours. Group 2 (n=11) received a dose of 30 mg/kg IV bolus followed by 6 mg/kg/hr IV infusion for 4 hours. Group 3 (n=9) received a dose of 10 mg/kg IV bolus followed by 2 mg/kg/hr IV infusion for 4 hours. Group 3 rats were also treated at 120 minutes, 180 minutes and 360 minutes post-occlusion. Group 4 (n=8) received a dose of 3 mg/kg IV bolus followed by […] IV infusion for 4 hours.
# Two additional drug treated groups received 2-(3-sulfanylpropyl)pentanedioic acid. For each rat, the treatment was initiated at 120 minutes post middle cerebral artery occlusion (MCAO) by an IV bolus injection which was immediately followed by IV infusion for 4 hours at rate of 0.5 ml/hr. Group 5 received a dose of 30 mg/kg IV bolus followed by 6 mg/kg/hr IV infusion for 4 hours. Group 6 received a dose of 10 mg/kg IV bolus followed by 2 mg/kg/hr IV infusion.
# Twenty two hours following the reperfusion, the rats were euthanized and their brains were removed. Seven coronal sections (2 mm thick) were taken and stained with 1% solution of 2,3,5-triphenyl-tetraxolium chloride (TTC) for 20 minutes and then fixed in 10% formalin. The anterior and posterior surface of the most rostral brain section and the posterior surface of each of the remaining 6 sections were imaged. The quantification of infarct size of each brain was obtained using a computer aided-digital imaging analysis system (LOATS). The brain regions completely lacking TTC-staining were characterized as representative of infarcted tissue. The total infarct volume for each rat was calculated by numeric integration of the respective sequential brain areas.
# Male Sprague-Dawley rats (260-320 g) were used. They were individually housed and allowed free access to food and water. Two days prior to the experiment, they were given restricted food if necessary to maintain the body weight Each rat received two surgeries: femoral vein cannulation for IV infusion and MCAO. During surgeries, the rat was anesthetized with 1.5% halothane delivered in oxygen via an inhalation mask. The body temperature was monitored and regulated at normothermic level using a homeothermic heating system. First, a catheter was inserted into the left femoral vein. Thirty minutes later, the rat was reanesthetized for MCAO surgery. The MCAO was achieved using the endovascular suture method described by Long et al., Stroke, Vol. 20, pp. 84-91 (1989). Specifically, the right external carotid artery (ECA) was exposed, coagulated and transected. A 3-0 monofilament nylon suture with a blunted tip and a coat of 0.05% Poly-1-Lysine was introduced into the proximal stump of the ECA via an arteriotomy. It was advanced 22 mm from the carotid bifurcation until it lodged in the proximal region of the anterior cerebral artery, thereby occluding the origin of the MCA. The rats were allowed to wake up; 2 hours later, the rats were reanesthetized for reperfusion, during which the nylon suture was retracted to the stump of the ECA allowing blood recirculation to the MCA.
row,SMILES,infarct size vs. vehicle treated rats
1,O=C(O)CCC(CCCS)C(=O)O (stereo not shown) [2-(3-sulfanylpropyl)pentanedioic acid],significantly smaller infarct size

# Same assay, conditions: TABLE IV(b); dose 10 mg/kg, 120 minutes post MCAO
row,SMILES,% Protect
1,O=C(O)CCC(CCCS)C(=O)O (stereo not shown) [2-(3-sulfanylpropyl)pentanedioic acid],21%

# Same assay, conditions: TABLE IV(b); dose 30 mg/kg, 120 minutes post MCAO
row,SMILES,% Protect
1,O=C(O)CCC(CCCS)C(=O)O (stereo not shown) [2-(3-sulfanylpropyl)pentanedioic acid],52%

# Tested on: LNCaP cells
# Experiment: not given
# Details: as the concentration increased; cited from earlier work
row,SMILES,LNCaP cell proliferation
1,"N[C@@H](Cn1oc(=O)[nH]c1=O)C(=O)O [quisqualic acid, reference compound]",decreased significantly

# Tested on: not listed separately
# Experiment: Example 14: each of the Examples and in vitro and in vivo assays described above
# Details: each of their respective assays and Examples
row,SMILES,in vitro or in vivo activity
1,CC(S)CC(CCC(=O)O)C(=O)O (stereo not shown) [2-(2-sulfanylpropyl)pentanedioic acid],exhibit in vitro or in vivo activity
2,O=C(O)CCC(CCCS)C(=O)O (stereo not shown) [2-(3-sulfanylpropyl)pentanedioic acid],exhibit in vitro or in vivo activity
